The values that follow come from ChEMBL document CHEMBL5126582, “Discovery of (2-(pyrrolidin-1-yl)thieno[3,2-d]pyrimidin-4-yl)(3,4,5-trimethoxyphenyl)methanone as a novel potent tubulin depolymerizing and vascular disrupting agent” (Eur J Med Chem, 2022).

One assay concerns HL-60. Kind of assay: Antiproliferative activity against human HL-60 cells assessed as reduction in cell viability incubated for 48 hrs by MTS assay. Format: functional, cell-based. The note with it: HL-60, 48 h.
In assay [1] the test system is HeLa. Kind of assay: Antiproliferative activity against human HeLa cells assessed as reduction in cell viability incubated for 48 hrs by MTS assay. In kind it is functional, cell-based.
Assay [2] has as its system HeLa. Kind of assay: Induction of apoptosis in human HeLa cells assessed as viable cells at 100 nM incubated for 24 hrs by annexin V FITC and propidium iodide staining based flow cytometry analysis (reference value: 85.7%). In kind it is functional. The note with it: read-out: Activity. Background: In flow cytometry, cells or beads pass a laser one at a time.
Assay [3] relates to HeLa. The assay is described as follows: Induction of apoptosis in human HeLa cells assessed as viable cells at 100 nM incubated for 48 hrs by annexin V FITC and propidium iodide staining based flow cytometry analysis (reference value: 85.5%). In kind it is functional. The note with it: read-out: Activity.
For assay [4], the system named is HeLa. The assay is described as follows: Induction of apoptosis in human HeLa cells assessed as early apoptotic cells at 500 nM incubated for 48 hrs by annexin V FITC and propidium iodide staining based flow cytometry analysis (reference value: 6.01%). In kind it is functional.
The test system of assay [5] is HeLa. Kind of assay: Induction of apoptosis in human HeLa cells assessed as necrotic cells at 500 nM incubated for 48 hrs by annexin V FITC and propidium iodide staining based flow cytometry analysis (reference value: 1.85 %). In kind it is functional.
For assay [6], the system named is HeLa. Kind of assay: Induction of apoptosis in human HeLa cells assessed as necrotic cells at 750 nM incubated for 48 hrs by annexin V FITC and propidium iodide staining based flow cytometry analysis (reference value: 1.85 %). In kind it is functional.
The test system of assay [7] is HeLa. The assay is described as follows: Induction of apoptosis in human HeLa cells assessed as necrotic cells at 500 nM incubated for 72 hrs by annexin V FITC and propidium iodide staining based flow cytometry analysis (reference value: 2.88 %). Format: functional.
Assay [8] relates to HeLa. The assay is described as follows: Induction of apoptosis in human HeLa cells assessed as early apoptotic cells at 750 nM incubated for 72 hrs by annexin V FITC and propidium iodide staining based flow cytometry analysis (reference value: 2.36%). In kind it is functional.
The test system of assay [9] is HeLa. The assay is described as follows: Induction of apoptosis in human HeLa cells assessed as late apoptotic cells at 750 nM incubated for 72 hrs by annexin V FITC and propidium iodide staining based flow cytometry analysis (reference value: 4.70%). In kind it is functional.
Assay [10] deals with HeLa. Kind of assay: Induction of apoptosis in human HeLa cells assessed as viable cells at 1 uM incubated for 72 hrs by annexin V FITC and propidium iodide staining based flow cytometry analysis (reference value: 90.1%). The note with it: read-out: Activity. In kind it is functional.
The test system of assay [11] is HeLa. Kind of assay: Induction of apoptosis in human HeLa cells assessed as early apoptotic cells at 1 uM incubated for 72 hrs by annexin V FITC and propidium iodide staining based flow cytometry analysis (reference value: 2.36%). In kind it is functional.
Assay [12] deals with HeLa. The assay is described as follows: Induction of apoptosis in human HeLa cells assessed as late apoptotic cells at 1 uM incubated for 72 hrs by annexin V FITC and propidium iodide staining based flow cytometry analysis (reference value: 4.70%). In kind it is functional.
In assay [13] the test system is HeLa. The assay is described as follows: Induction of mitochondrial membrane potential alteration in human HeLa cells assessed as late apoptotic cells at 100 nM measured after 48 hrs by JC1 staining-based flow cytometry analysis (reference value: 0.009%). In kind it is functional.
Assay [14] has as its system HeLa. The assay is described as follows: Induction of mitochondrial membrane potential alteration in human HeLa cells assessed as early apoptotic cells at 250 nM measured after 48 hrs by JC1 staining-based flow cytometry analysis (reference value: 9.07 %). Format: functional.
Assay [15] deals with HeLa. Kind of assay: Induction of mitochondrial membrane potential alteration in human HeLa cells assessed as necrotic cells at 250 nM measured after 48 hrs by JC1 staining-based flow cytometry analysis (reference value: 0%). In kind it is functional.
For assay [16], the system named is HeLa. Kind of assay: Induction of mitochondrial membrane potential alteration in human HeLa cells assessed as late apoptotic cells at 500 nM measured after 48 hrs by JC1 staining-based flow cytometry analysis (reference value: 0.009%). In kind it is functional.
The subject of assay [17] is HeLa. Kind of assay: Induction of mitochondrial membrane potential alteration in human HeLa cells assessed as early apoptotic cells at 750 nM measured after 48 hrs by JC1 staining-based flow cytometry analysis (reference value: 9.07 %). Format: functional.
The subject of assay [18] is HeLa. The assay is described as follows: Induction of mitochondrial membrane potential alteration in human HeLa cells assessed as necrotic cells at 750 nM measured after 48 hrs by JC1 staining-based flow cytometry analysis (reference value: 0%). In kind it is functional.
Assay [19] concerns HeLa. Kind of assay: Induction of mitochondrial membrane potential alteration in human HeLa cells assessed as late apoptotic cells at 1 uM measured after 48 hrs by JC1 staining-based flow cytometry analysis (reference value: 0.009%). Format: functional.
Assay [20] concerns HeLa. The assay is described as follows: Induction of mitochondrial membrane potential alteration in human HeLa cells assessed as necrotic cells at 1 uM measured after 48 hrs by JC1 staining-based flow cytometry analysis (reference value: 0%). In kind it is functional.

The term IC50 denotes the concentration at which inhibition is half-maximal. For `COc1cc(C(=O)c2nc(N3CCCC3)nc3ccsc23)cc(OC)c1OC`, the 50% inhibitory concentration (IC50) turned out to be 8 nM in the assay with HL-60 and 3 nM with HeLa [1]. For the same molecule, the viability at 0.1 µM with HeLa [2] stood at 80.5%; in the assay on HeLa [3], 60.7%. Further, the Activity turned out to be 4.64% with HeLa [4]; 8.84% in the assay on HeLa [5]; 22.5% in the assay with HeLa [6]; 52.2% in the assay with HeLa [7]; 1.24% in the assay on HeLa [8]; 21.3% in the assay on HeLa [9]. The Activity with HeLa [11] came to 5.47%; with HeLa [12], 24.7%; with HeLa [13], 0.02%; with HeLa [14] it was 9.45%; with HeLa [15], 0.01%; in the assay on HeLa [16], 0.019%. The Activity is 43.3% in the assay with HeLa [17], 0.019% in the assay on HeLa [18], 0.053% in the assay with HeLa [19] and 0.053% in the assay with HeLa [20]. In the assay with HeLa [10], the viability at 1 µM was found to be 27.9%.
